# Source: patent US12673975B2, “Cyclic peptide, cell scaffold material, cell separating material, and medium” (FUJIFILM Corporation, priority 2019, dated 2026)
# Where two headings read alike, the source gives them in different places. Starred links: 1 amine or outer side, 2 acyl side, 3 side chain; linkers in the order of their positions; H or OH if unused. Positions of bridges follow the written chain, without caps; N, C: chain ends. Non-standard residues stand in square brackets, D forms with d. Residues, ends and D or L forms follow the SMILES beside them. Pen = CC(C)(S)[C@H](N)C(=O)O; hCys = N[C@@H](CCS)C(=O)O; Dab = NCC[C@H](N)C(=O)O; Dap = NC[C@H](N)C(=O)O; X1 = O=C(C[*:2])[*:1]; X2 = O=C(C[*:1])[*:2]; βAla = NCCC(=O)O
# Experiments:
# human integrin αvβ5 = human integrin αvβ5 (Homo sapiens, UniProt P06756+P18084); experiment: Evaluation of integrin binding property (surface plasmon resonance, Biacore 3000, immobilized cyclic peptide)
# Procedure, shortened: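 SPR with cyclic peptide amine-coupled via EDC/NHS to a CM5 chip, blank channel as reference. Integrin αvβ5 at 30, 100, 300 and 1,000 nM injected 10 min at 25 °C in HEPES buffer pH 7.4 with 5 mM MgCl2, 30 min buffer flow, EDTA regeneration; Kd from reference-subtracted signals, graded by category.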
# [1] = Evaluation of molecule stability (alkali treatment, residual rate by LC/MS); format: physicochemical; details: for Stability (molecule stability, residual rate of the cyclic peptide rank): alkali treatment, residual rate by LC/MS; for Performance evaluation: Stability (residual rate of cyclic peptide after alkali treatment): 500 μM peptide aqueous solution plus equivalent of 1 M sodium hydroxide, 15° C., 3 hours, LC/MS peak area
# Procedure, shortened: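 500 μM aqueous cyclic peptide mixed with an equal volume of 1 M NaOH and held 3 h at 15 °C. Residual rate is total LC/MS peak area after treatment relative to untreated (100%), using a C18 column, pH 3 ammonium formate/acetonitrile gradient, 45 °C, ESI±.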
# [2] = surface plasmon resonance, immobilized cyclic peptide, human integrin αvβ5, read-out: Binding activity (integrin binding property, dissociation constant rank)
# [3] = SPR, 25° C., HEPES buffer with 5 mM magnesium chloride, integrin 30-1,000 nM, read-out: Performance evaluation: Binding activity (dissociation constant between the cyclic peptide and human integrin αvβ5)
# human integrin αvβ5, sequence (P06756 31-1048): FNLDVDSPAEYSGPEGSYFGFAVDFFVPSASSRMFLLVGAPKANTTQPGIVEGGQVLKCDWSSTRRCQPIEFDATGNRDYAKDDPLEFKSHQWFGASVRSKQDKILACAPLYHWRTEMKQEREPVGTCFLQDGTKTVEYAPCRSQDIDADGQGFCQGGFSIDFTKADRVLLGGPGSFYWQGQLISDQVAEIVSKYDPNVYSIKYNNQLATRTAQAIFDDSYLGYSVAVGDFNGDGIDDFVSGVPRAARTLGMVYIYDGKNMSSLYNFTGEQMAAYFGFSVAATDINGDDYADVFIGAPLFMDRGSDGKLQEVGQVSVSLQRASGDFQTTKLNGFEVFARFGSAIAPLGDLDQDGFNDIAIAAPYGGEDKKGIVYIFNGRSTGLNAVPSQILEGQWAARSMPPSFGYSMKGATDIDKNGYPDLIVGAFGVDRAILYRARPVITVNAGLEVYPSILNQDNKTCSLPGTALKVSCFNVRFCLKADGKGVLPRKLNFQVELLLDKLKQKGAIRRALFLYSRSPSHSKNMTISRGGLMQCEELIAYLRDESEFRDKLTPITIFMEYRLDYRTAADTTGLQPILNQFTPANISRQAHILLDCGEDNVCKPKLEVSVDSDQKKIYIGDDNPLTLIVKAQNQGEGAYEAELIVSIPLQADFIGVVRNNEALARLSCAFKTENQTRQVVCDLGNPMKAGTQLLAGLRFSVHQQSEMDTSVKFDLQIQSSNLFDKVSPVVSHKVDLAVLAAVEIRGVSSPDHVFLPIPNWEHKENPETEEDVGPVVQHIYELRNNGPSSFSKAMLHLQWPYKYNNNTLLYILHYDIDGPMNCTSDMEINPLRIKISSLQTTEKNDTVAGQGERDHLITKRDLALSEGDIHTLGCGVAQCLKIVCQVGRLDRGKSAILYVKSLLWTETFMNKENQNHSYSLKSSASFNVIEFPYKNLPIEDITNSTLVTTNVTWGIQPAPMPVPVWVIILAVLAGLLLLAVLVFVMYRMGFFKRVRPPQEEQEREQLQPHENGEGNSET
# human integrin αvβ5, sequence (P18084 24-799): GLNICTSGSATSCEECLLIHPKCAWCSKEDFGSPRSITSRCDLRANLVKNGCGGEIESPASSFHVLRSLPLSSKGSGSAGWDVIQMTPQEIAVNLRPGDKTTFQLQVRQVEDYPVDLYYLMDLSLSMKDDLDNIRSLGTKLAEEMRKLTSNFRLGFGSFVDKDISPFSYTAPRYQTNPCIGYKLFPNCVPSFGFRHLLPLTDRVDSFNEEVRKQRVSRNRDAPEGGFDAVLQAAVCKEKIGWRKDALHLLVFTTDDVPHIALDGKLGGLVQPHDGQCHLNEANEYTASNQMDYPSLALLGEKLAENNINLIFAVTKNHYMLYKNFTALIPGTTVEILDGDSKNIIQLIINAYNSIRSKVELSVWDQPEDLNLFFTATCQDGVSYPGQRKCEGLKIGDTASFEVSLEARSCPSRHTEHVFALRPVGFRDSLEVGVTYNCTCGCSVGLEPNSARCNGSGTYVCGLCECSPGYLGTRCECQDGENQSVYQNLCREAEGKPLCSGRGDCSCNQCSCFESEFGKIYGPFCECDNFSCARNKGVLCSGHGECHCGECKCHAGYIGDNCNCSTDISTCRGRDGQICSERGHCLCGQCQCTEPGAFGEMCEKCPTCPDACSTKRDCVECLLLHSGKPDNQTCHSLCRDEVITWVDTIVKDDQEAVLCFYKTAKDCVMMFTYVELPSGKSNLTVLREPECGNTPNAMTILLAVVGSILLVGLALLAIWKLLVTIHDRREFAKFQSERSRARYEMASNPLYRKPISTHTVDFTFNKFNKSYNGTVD
Structure (SMILES),Kd (human integrin αvβ5; [2]) [nM],Kd (human integrin αvβ5; [3]) [nM],"Stability (molecule stability, residual rate of the cyclic peptide rank) [1]",Performance evaluation: Stability (residual rate of cyclic peptide after alkali treatment) [1]
"CC[C@H](C)[C@@H]1NC(=O)[C@@H](NC(=O)[C@H](CCCCN)NC(=O)[C@H](CCCCN)NC(=O)[C@@H](N)CCCCN)CNC(=O)CSCC[C@@H](C(=O)O)NC(=O)[C@H](CCCNC(=N)N)NC(=O)[C@H](Cc2ccccc2)NC(=O)[C@H](CC(N)=O)NC(=O)[C@H](CC(=O)O)NC(=O)CNC(=O)[C@H](CCCNC(=N)N)NC(=O)[C@@H]2CCCN2C1=O [Cyclic peptide 12, KKK(Dap(acetyl))IPRGDNFR-(Hcy)] (H-KKK[Dap]IPRGDNFR[hCys]-OH; linker 4-13 via X1)",–,50 to 100,–,B (The residual rate of the cyclic peptide is 50% or more and less than 70%.)
"CC[C@H](C)[C@@H]1NC(=O)[C@@H](NC(=O)CNC(=O)[C@H](CCCCN)NC(=O)[C@H](CCCCN)NC(=O)[C@@H](N)CCCCN)CCSCC(=O)NCC[C@@H](C(=O)N[C@@H](C)C(=O)O)NC(=O)[C@H](CCCNC(=N)N)NC(=O)[C@H](Cc2ccccc2)NC(=O)[C@H]([C@@H](C)O)NC(=O)[C@H](CC(=O)O)NC(=O)CNC(=O)[C@H](CCCNC(=N)N)NC(=O)[C@@H]2CCCN2C1=O [Cyclic peptide 54, KKKG-(Hcy)-IPRGDTFR(Dab(acetyl))A] (H-KKKG[hCys]IPRGDTFR[Dab]A-OH; linker 5-14 via X2)",–,< 50,–,A (The residual rate of the cyclic peptide is 70% or more.)
"C[C@H](NC(=O)[C@H](CCCCN)NC(=O)[C@H](CCCCN)NC(=O)[C@@H](N)CCCCN)C(=O)N[C@H]1CCSCC(=O)NCC[C@@H](C(=O)N[C@@H](CC(=O)O)C(=O)O)NC(=O)[C@H](CCC(=O)O)NC(=O)[C@H](Cc2ccc(O)cc2)NC(=O)[C@H](CC(N)=O)NC(=O)[C@H](CC(=O)O)NC(=O)CNC(=O)[C@H](CCCNC(=N)N)NC(=O)[C@@H]2CCCN2C(=O)[C@H](CCC(=O)O)NC1=O [Cyclic peptide 36, KKKA-(Hcy)-EPRGDNYE(Dab(acetyl))D] (H-KKKA[hCys]EPRGDNYE[Dab]D-OH; linker 5-14 via X2)",–,50 to 100,–,A (The residual rate of the cyclic peptide is 70% or more.)
"CC[C@H](C)[C@@H]1NC(=O)[C@@H](NC(=O)[C@H](C)NC(=O)[C@H](CCCCN)NC(=O)[C@H](CCCCN)NC(=O)[C@@H](N)CCCCN)CCSCC(=O)NCC[C@@H](C(=O)NCC(=O)O)NC(=O)[C@H](C)NC(=O)[C@H](Cc2ccccc2)NC(=O)[C@H]([C@@H](C)O)NC(=O)[C@H](CC(=O)O)NC(=O)CNC(=O)[C@H](CCCNC(=N)N)NC(=O)[C@@H]2CCCN2C1=O [Cyclic peptide 85, KKKA-(Hcy)-IPRGDTFA(Dab(acetyl))G] (H-KKKA[hCys]IPRGDTFA[Dab]G-OH; linker 5-14 via X2)",–,< 50,–,A (The residual rate of the cyclic peptide is 70% or more.)
"N=C(N)NCCC[C@@H]1NC(=O)[C@H](Cc2ccc(O)cc2)NC(=O)[C@H](CC(N)=O)NC(=O)[C@H](CC(=O)O)NC(=O)CNC(=O)[C@H](CCCNC(=N)N)NC(=O)[C@@H]2CCCN2C(=O)[C@H](CCC(=O)O)NC(=O)[C@@H](NC(=O)CCNC(=O)[C@H](CCCCN)NC(=O)[C@H](CCCCN)NC(=O)[C@@H](N)CCCCN)CCSCC(=O)NCC[C@@H](C(N)=O)NC1=O [Cyclic peptide 51, KKKβA-(Hcy)-EPRGDNYR(Dab(acetyl))] (H-KKK[βAla][hCys]EPRGDNYR[Dab]-NH2; linker 5-14 via X2)",–,100 to 200,–,A (The residual rate of the cyclic peptide is 70% or more.)
"CC(C)[C@@H]1NC(=O)[C@@H](NC(=O)[C@H](C)NC(=O)[C@H](CCCCN)NC(=O)[C@H](CCCCN)NC(=O)[C@@H](N)CCCCN)CCSCC(=O)NCC[C@@H](C(=O)N[C@@H](C)C(=O)O)NC(=O)[C@H](C)NC(=O)[C@H](Cc2ccccc2)NC(=O)[C@H](CO)NC(=O)[C@H](CC(=O)O)NC(=O)CNC(=O)[C@H](CCCNC(=N)N)NC(=O)[C@@H]2CCCN2C1=O [Cyclic peptide 96, KKKA-(Hcy)-VPRGDSFA(Dab(acetyl))A] (H-KKKA[hCys]VPRGDSFA[Dab]A-OH; linker 5-14 via X2)",–,< 50,–,A (The residual rate of the cyclic peptide is 70% or more.)
"C[C@H](NC(=O)[C@H](CCCCN)NC(=O)[C@H](CCCCN)NC(=O)[C@@H](N)CCCCN)C(=O)N[C@H]1CCSCC(=O)NCC[C@@H](C(=O)N[C@@H](CC(=O)O)C(=O)O)NC(=O)[C@H](CCCNC(=N)N)NC(=O)[C@H](Cc2ccc(O)cc2)NC(=O)[C@H](CO)NC(=O)[C@H](CC(=O)O)NC(=O)CNC(=O)[C@H](CCCNC(=N)N)NC(=O)[C@@H]2CCCN2C(=O)[C@H](CCC(=O)O)NC1=O [Cyclic peptide 33, KKKA-(Hcy)-EPRGDSYR(Dab(acetyl))D] (H-KKKA[hCys]EPRGDSYR[Dab]D-OH; linker 5-14 via X2)",–,100 to 200,–,A (The residual rate of the cyclic peptide is 70% or more.)
"CC(C)[C@@H]1NC(=O)[C@@H](NC(=O)CNC(=O)[C@H](CCCCN)NC(=O)[C@H](CCCCN)NC(=O)[C@@H](N)CCCCN)CCSCC(=O)NCC[C@@H](C(=O)N[C@@H](C)C(=O)O)NC(=O)[C@H](CCCNC(=N)N)NC(=O)[C@H](Cc2ccccc2)NC(=O)[C@H]([C@@H](C)O)NC(=O)[C@H](CC(=O)O)NC(=O)CNC(=O)[C@H](CCCNC(=N)N)NC(=O)[C@@H]2CCCN2C1=O [Cyclic peptide 70, KKKG-(Hcy)-VPRGDTFR(Dab(acetyl))A] (H-KKKG[hCys]VPRGDTFR[Dab]A-OH; linker 5-14 via X2)",–,< 50,–,A (The residual rate of the cyclic peptide is 70% or more.)
"CC[C@H](C)[C@@H]1NC(=O)[C@@H](NC(=O)CNC(=O)[C@H](CCCCN)NC(=O)[C@H](CCCCN)NC(=O)[C@@H](N)CCCCN)CCSCC(=O)NCC[C@@H](C(=O)NCC(=O)O)NC(=O)[C@H](CCCNC(=N)N)NC(=O)[C@H](Cc2ccccc2)NC(=O)[C@H]([C@@H](C)O)NC(=O)[C@H](CC(=O)O)NC(=O)CNC(=O)[C@H](CCCNC(=N)N)NC(=O)[C@@H]2CCCN2C1=O [Cyclic peptide 55, KKKG-(Hcy)-IPRGDTFR(Dab(acetyl))G] (H-KKKG[hCys]IPRGDTFR[Dab]G-OH; linker 5-14 via X2)",–,< 50,–,A (The residual rate of the cyclic peptide is 70% or more.)

# Continued, in another order:
Kd (human integrin αvβ5; [2]) [nM],Kd (human integrin αvβ5; [3]) [nM],Structure (SMILES),"Stability (molecule stability, residual rate of the cyclic peptide rank) [1]",Performance evaluation: Stability (residual rate of cyclic peptide after alkali treatment) [1]
< 50,–,"C[C@H](NC(=O)[C@@H]1CCNC(=O)CSCC[C@H](NC(=O)[C@H](C)NC(=O)[C@H](CCCCN)NC(=O)[C@H](CCCCN)NC(=O)[C@@H](N)CCCCN)C(=O)N[C@@H]([C@@H](C)O)C(=O)N2CCC[C@H]2C(=O)N[C@@H](CCCNC(=N)N)C(=O)NCC(=O)N[C@@H](CC(=O)O)C(=O)N[C@@H]([C@@H](C)O)C(=O)N[C@@H](Cc2ccccc2)C(=O)N[C@@H](C)C(=O)N1)C(=O)O [Cyclic peptide 160, KKKA-(Hcy)-TPRGDTFA(Dab(acetyl))A] (H-KKKA[hCys]TPRGDTFA[Dab]A-OH; linker 5-14 via X2)",A (The residual rate of the cyclic peptide is 70% or more.),–
–,< 50,"CC[C@H](C)[C@@H]1NC(=O)[C@@H](NC(=O)[C@H](C)N)CCSCC(=O)NCC[C@@H](C(=O)N[C@@H](C)C(=O)N[C@@H](CCCCN)C(=O)N[C@@H](CCCCN)C(=O)N[C@@H](CCCCN)C(=O)O)NC(=O)[C@H](C)NC(=O)[C@H](Cc2ccccc2)NC(=O)[C@H](CO)NC(=O)[C@H](CC(=O)O)NC(=O)CNC(=O)[C@H](CCCNC(=N)N)NC(=O)[C@@H]2CCCN2C1=O [Cyclic peptide 100, A-(Hcy)-IPRGDSFA(Dab(acetyl))AKKK] (H-A[hCys]IPRGDSFA[Dab]AKKK-OH; linker 2-11 via X2)",–,A (The residual rate of the cyclic peptide is 70% or more.)
< 50,–,"C[C@@H]1NC(=O)[C@H](Cc2ccccc2)NC(=O)[C@H]([C@@H](C)O)NC(=O)[C@H](CC(=O)O)NC(=O)CNC(=O)[C@H](CCCNC(=N)N)NC(=O)[C@@H]2CCCN2C(=O)[C@H]([C@@H](C)O)NC(=O)[C@@H](NC(=O)[C@H](CCCCN)NC(=O)[C@H](CCCCN)NC(=O)[C@@H](N)CCCCN)CCSCC(=O)NCC[C@@H](C(=O)O)NC1=O [Cyclic peptide 147, KKK-(Hcy)-TPRGDTFA(Dab(acetyl))] (H-KKK[hCys]TPRGDTFA[Dab]-OH; linker 4-13 via X2)",A (The residual rate of the cyclic peptide is 70% or more.),–
50 to 100,–,"CC[C@H](C)[C@@H]1NC(=O)[C@@H](NC(=O)[C@H](C)NC(=O)[C@H](CCCCN)NC(=O)[C@H](CCCCN)NC(=O)[C@@H](N)CCCCN)CCNC(=O)CSC(C)(C)[C@@H](C(=O)N[C@@H](C)C(=O)O)NC(=O)[C@H](C)NC(=O)[C@H](Cc2ccccc2)NC(=O)[C@H](CO)NC(=O)[C@H](CC(=O)O)NC(=O)CNC(=O)[C@H](CCCNC(=N)N)NC(=O)[C@@H]2CCCN2C1=O [Cyclic peptide 137, KKKA(Dab(acetyl))IPRGDSFA-(Pen)-A] (H-KKKA[Dab]IPRGDSFA[Pen]A-OH; linker 5-14 via X1)",A (The residual rate of the cyclic peptide is 70% or more.),–
